Several values for one entry are separate records, joined by “and”; a condition that tells them apart may be missing. Equal entries are not always repeated.
Key:
H-1299 cells = assay: MTT cytotoxicity assay, H-1299; assay type: cell-based, human
Experimental: (§1) The effects of the tested compounds 1–6 on HF-P4, U-118 MG, H1299, BT-20, and Caov-3 cell lines were evaluated by the MTT assay during 48 h treatment (Table 2 and Tables S2–S31). In all tested compounds, we recognized a difference in cytotoxicity between healthy cells (HF-P4) and cancer cell lines (BT-20, Caov-3, and H-1299). […] In the case of ovarian cancer, the authors discovered oncogenic and poor prognosis roles of TET1 in epithelial ovarian carcinoma (EOC). TET1 is believed to demethylate the epigenome and activate numerous oncogenic pathways in EOC. The aforementioned study presents a new mechanism where TET1 contributes to tumor development through collaboration with CK2α [21]. The overexpression of the TET1 protein was also found in triple negative breast cancer and was associated with an activation of PI3K/mTOR pathway and decreased overall survival.
(§2) A human glioblastoma cell line (U118-MG) and a human non-small-cell lung carcinoma cell line (H1299) were used for the cytotoxicity assay (MTT). Both cell lines were generously supplied by Dr. M. Masařik, PhD, Department of Pathological physiology, Masaryk University, Czech Republic. U118-MG cells were cultivated under standard conditions in Dulbecco’s modified Eagle’s medium (ATCC, Manassas, VA, USA) supplemented with 10% FBS and streptomycin (100 μg/mL) at 37 °C at a 5% CO2 atmosphere. H1299 cells were cultivated under standard conditions in RPMI 1640 (BioTech, Prague, Czech Republic) medium supplemented with 10% FBS and streptomycin (100 μg/mL) at 37 °C at a 5% CO2 atmosphere.
(§3) For the cytotoxicity assay, we used the following cell lines: human glioblastoma cell line U118-MG, human mammary gland/breast cell line BT-20, human ovary adenocarcinoma cell line Caov-3, and non-small-cell lung carcinoma H-1299. As previously mentioned, these cell lines contain a high level of the TET1 protein, which corresponds to a lower overall survival. In addition to these cell cultures, we used the human dermal fibroblast cell line HF-P4 as a healthy control. Determination of cytotoxicity was performed using the MTT [3-(4,5-dimethylthiazol-2-yl)-2,5-diphenyltetrazolium bromide] colorimetric assay. Viable cells from each cell line were cultured in 96-well plates (VWR, Stříbrná Skalice, Czech Republic) at a density of 1.0 × 10^5 cells per well and allowed to grow for 24 h in 200 μL of recommended medium. After a 1-day incubation, the medium was replaced with solutions of compounds 1–6 at concentration ranges of 0.1–20 μM. Each concentration was measured four times within one test, and the entire test was repeated three times. Tested compounds 1–6 were dissolved in DMSO and then diluted with corresponding medium to a final volume of 200 μL (maximum 1% DMSO). After 48 h exposure, cells were treated with 175 μL of MTT solution (P-LAB, Prague, Czech Republic) for 2 h. In the next step, MTT solution was removed, and 125 μL of DMSO (Penta, Prague, Czech Republic) was added to solubilize dark crystals of formazan formed in intact cells, and absorbance was measured at 570 nm by the enzyme-linked immunoabsorbent assay reader Infinite® 200 PRO (Tecan, Männedorf, Switzerland). The final DMSO concentration was smaller than 1% (v/v). The absorbance of untreated cells was considered 100%, and IC50 values were calculated by the GraphPad Prism 8 software. As a parameter for cytotoxicity, we used a concentration that inhibits 50% of cell growth (IC50).

HF-P4 cells = assay: MTT cytotoxicity assay, HF-P4; assay type: cell-based, human; conditions: 48 h; for Cell viability %: repeats
Experimental: as §1
(§4) A human dermal fibroblast cell line was used for intracellular localization and cytotoxicity assay (MTT). Human fibroblast cells HF-P4 (human fibroblasts—patient 4) are normal dermal fibroblasts, which were obtained from the residual skin of a healthy patient who underwent plastic surgery (with informed consent of the patient). HF-P4 cell lines were obtained from the Department of Plastic Surgery, Third Faculty of Medicine, Charles University and University Hospital Královské Vinohrady, Prague, Czech Republic, as described by Szabo et al., 2011, and Dvořánková et al., 2019 [88, 89], and have been processed in accordance with the relevant local ethics committee and the Declaration of Helsinki protection of patients’ rights and benefits with written and signed informed consent of each patient. Cells were cultivated under standard conditions in Dulbecco’s modified Eagle’s medium (ATCC, Manassas, VA, USA), supplemented with 10% FBS and streptomycin (100 μg/mL) at 37 °C at a 5% CO2 atmosphere.
as §3

[1] = MTT cytotoxicity assay, HF-P4; assay type: cell-based, human; conditions: human, HF-P4 normal human dermal fibroblasts, repeats, read-out: Cell viability %
Experimental: as §1, §4, §3

U-118 MG cells = assay: MTT cytotoxicity assay, U-118 MG; assay type: cell-based, human; conditions: 48 h
Experimental: as §1, §2, §3

Question: Which Cell viability % (H-1299 cells; H-1299, 100 nM, 48 h, repeats, 0.1 µM) does the source give for Cc1ccc(-n2c(-c3ccc(C(=O)NN)cc3)cc3c2cc(-c2ccc(C(=O)NN)cc2)n3-c2ccc(C)cc2)cc1 [Compound 1] here?
Answer: 74.42% and 77.2%

Question: What about the Cell viability % (H-1299 cells; H-1299, 500 nM, 48 h, repeats, 0.5 µM) of the same compound?
Answer: 114.5756% and 80.35% and 108.7959%

Question: What about the Cell viability % (H-1299 cells; H-1299, 750 nM, 48 h, repeats, 0.75 µM) of the same compound?
Answer: 97.3% and 84.13% and 122.0664%

Question: What about the Cell viability % (H-1299 cells; H-1299, 1 uM, 48 h, repeats, 1 µM) of the same compound?
Answer: 81.23% and 63.3%

Question: What about the Cell viability % (H-1299 cells; H-1299, 2.5 uM, 48 h, repeats, 2.5 µM) of the same compound?
Answer: 76.07% and 72.39%

Question: And the Cell viability % (H-1299 cells; H-1299, 5 uM, 48 h, repeats, 5 µM)?
Answer: 61.74% and 69.23%

Question: And the Cell viability % (H-1299 cells; H-1299, 7.5 uM, 48 h, repeats, 7.5 µM)?
Answer: 36.84% and 36.67%

Question: What about the Cell viability % (H-1299 cells; H-1299, 10 uM, 48 h, repeats, 10 µM) of the same compound?
Answer: 36.64% and 31.8986%

Question: And the Cell viability % (H-1299 cells; H-1299, 15 uM, 48 h, repeats, 15 µM)?
Answer: 23.04% and 23.96%

Question: What about the Cell viability % (H-1299 cells; H-1299, 20 uM, 48 h, repeats, 20 µM) of the same compound?
Answer: 17.01% and 14.68%

Question: What about the viability at 0.1 µM (H-1299 cells; Homo sapiens, NCI-H1299, 48 h, H-1299, 100 nM, repeats, read-out: Cell viability %) of the same compound?
Answer: 86.7%

Question: What about the viability at 1 µM (H-1299 cells; Homo sapiens, NCI-H1299, 48 h, H-1299, 1 uM, repeats, read-out: Cell viability %) of the same compound?
Answer: 69.9%

Question: And the viability at 2.5 µM (H-1299 cells; Homo sapiens, NCI-H1299, 48 h, H-1299, 2.5 uM, repeats, read-out: Cell viability %)?
Answer: 68%

Question: And the viability at 5 µM (H-1299 cells; Homo sapiens, NCI-H1299, 48 h, H-1299, 5 uM, repeats, read-out: Cell viability %)?
Answer: 57.7%

Question: What about the viability at 7.5 µM (H-1299 cells; Homo sapiens, NCI-H1299, 48 h, H-1299, 7.5 uM, repeats, read-out: Cell viability %) of the same compound?
Answer: 38.4%

Question: What about the viability at 10 µM (H-1299 cells; Homo sapiens, NCI-H1299, 48 h, H-1299, 10 uM, repeats, read-out: Cell viability %) of the same compound?
Answer: 35.2%

Question: What about the viability at 15 µM (H-1299 cells; Homo sapiens, NCI-H1299, 48 h, H-1299, 15 uM, repeats, read-out: Cell viability %) of the same compound?
Answer: 23.9%

Question: What about the viability at 20 µM (H-1299 cells; Homo sapiens, NCI-H1299, 48 h, H-1299, 20 uM, repeats, read-out: Cell viability %) of the same compound?
Answer: 19.2%

Question: And the IC50 (H-1299 cells; Homo sapiens, NCI-H1299, MTT, 48 h)?
Answer: 6.89 µM

Question: And the Cell viability % (HF-P4 cells; HF-P4, 100 nM, 0.1 µM)?
Answer: 110.5137% and 108.5444%

Question: What about the Cell viability % (HF-P4 cells; HF-P4, 500 nM, 0.5 µM) of the same compound?
Answer: 109.6499% and 91.3%

Question: And the Cell viability % (HF-P4 cells; HF-P4, 750 nM, 0.75 µM)?
Answer: 108.0378% and 98.14%

Question: What about the Cell viability % (HF-P4 cells; HF-P4, 1 uM, 1 µM) of the same compound?
Answer: 114.0028% and 114.925%

Question: And the Cell viability % (HF-P4 cells; HF-P4, 2.5 uM, 2.5 µM)?
Answer: 106.4486% and 88.2524%

Question: And the Cell viability % (HF-P4 cells; HF-P4, 5 uM, 5 µM)?
Answer: 90.58% and 81.47%

Question: And the Cell viability % (HF-P4 cells; HF-P4, 7.5 uM, 7.5 µM)?
Answer: 87.03% and 78.05%

Question: What about the Cell viability % (HF-P4 cells; HF-P4, 10 uM, 10 µM) of the same compound?
Answer: 75.94% and 65.94%

Question: What about the Cell viability % (HF-P4 cells; HF-P4, 15 uM, 15 µM) of the same compound?
Answer: 59.86% and 63.15%

Question: And the Cell viability % (HF-P4 cells; HF-P4, 20 uM, 20 µM)?
Answer: 64.65% and 61.04%

Question: What about the IC50 (HF-P4 cells; Homo sapiens, MTT) of the same compound?
Answer: > 20 µM

Question: What about the viability at 48 h, 0.1 µM ([1]; HF-P4, 100 nM) of the same compound?
Answer: 101%

Question: And the viability at 48 h, 0.5 µM ([1]; HF-P4, 500 nM)?
Answer: 106%

Question: And the viability at 48 h, 0.75 µM ([1]; HF-P4, 750 nM)?
Answer: 94%

Question: And the viability at 48 h, 1 µM ([1]; HF-P4, 1 uM)?
Answer: 105%

Question: What about the viability at 48 h, 2.5 µM ([1]; HF-P4, 2.5 uM) of the same compound?
Answer: 94.3%

Question: And the viability at 48 h, 5 µM ([1]; HF-P4, 5 uM)?
Answer: 80.7%

Question: What about the viability at 48 h, 7.5 µM ([1]; HF-P4, 7.5 uM) of the same compound?
Answer: 77.3%

Question: And the viability at 48 h, 10 µM ([1]; HF-P4, 10 uM)?
Answer: 70.5%

Question: And the viability at 48 h, 15 µM ([1]; HF-P4, 15 uM)?
Answer: 67.1%

Question: And the viability at 48 h, 20 µM ([1]; HF-P4, 20 uM)?
Answer: 64%

Question: And the melting point?
Answer: 312 to 313 °C

Question: And the viability at 0.1 µM (U-118 MG cells; Homo sapiens, U-118-MG, U-118 MG, 100 nM, repeats, read-out: Cell viability %)?
Answer: 74.9%

Question: And the viability at 0.5 µM (U-118 MG cells; Homo sapiens, U-118-MG, U-118 MG, 500 nM, repeats, read-out: Cell viability %)?
Answer: 81.2%

Question: And the viability at 0.75 µM (U-118 MG cells; Homo sapiens, U-118-MG, U-118 MG, 750 nM, repeats, read-out: Cell viability %)?
Answer: 75.3%

Question: What about the viability at 1 µM (U-118 MG cells; Homo sapiens, U-118-MG, U-118 MG, 1 uM, repeats, read-out: Cell viability %) of the same compound?
Answer: 61.6%

Question: What about the viability at 2.5 µM (U-118 MG cells; Homo sapiens, U-118-MG, U-118 MG, 2.5 uM, repeats, read-out: Cell viability %) of the same compound?
Answer: 59.8%

Question: And the viability at 5 µM (U-118 MG cells; Homo sapiens, U-118-MG, U-118 MG, 5 uM, repeats, read-out: Cell viability %)?
Answer: 64.5%

Question: And the viability at 7.5 µM (U-118 MG cells; Homo sapiens, U-118-MG, U-118 MG, 7.5 uM, repeats, read-out: Cell viability %)?
Answer: 65.9%

Question: What about the viability at 10 µM (U-118 MG cells; Homo sapiens, U-118-MG, U-118 MG, 10 uM, repeats, read-out: Cell viability %) of the same compound?
Answer: 49.8%

Question: What about the viability at 15 µM (U-118 MG cells; Homo sapiens, U-118-MG, U-118 MG, 15 uM, repeats, read-out: Cell viability %) of the same compound?
Answer: 52.9%

Question: What about the viability at 20 µM (U-118 MG cells; Homo sapiens, U-118-MG, U-118 MG, 20 uM, repeats, read-out: Cell viability %) of the same compound?
Answer: 32.4%

Question: And the IC50 (U-118 MG cells; Homo sapiens, U-118-MG, MTT)?
Answer: > 20 µM

Question: What about the Cell viability % (U-118 MG cells; U-118 MG, 100 nM, repeats, 0.1 µM) of the same compound?
Answer: 89.42% and 92.96%

Question: And the Cell viability % (U-118 MG cells; U-118 MG, 500 nM, repeats, 0.5 µM)?
Answer: 77.57% and 78.28%

Question: What about the Cell viability % (U-118 MG cells; U-118 MG, 750 nM, repeats, 0.75 µM) of the same compound?
Answer: 75.76% and 76.03%

Question: And the Cell viability % (U-118 MG cells; U-118 MG, 1 uM, repeats)?
Answer: 65.25% and 66.5%

Question: What about the Cell viability % (U-118 MG cells; U-118 MG, 2.5 uM, repeats) of the same compound?
Answer: 71.64% and 61.0448%

Question: And the Cell viability % (U-118 MG cells; U-118 MG, 5 uM, repeats)?
Answer: 72.2848% and 61.2%

Question: And the Cell viability % (U-118 MG cells; U-118 MG, 7.5 uM, repeats)?
Answer: 73.35% and 73.21%

Question: And the Cell viability % (U-118 MG cells; U-118 MG, 10 uM, repeats)?
Answer: 65.4465% and 62.16%

Question: What about the Cell viability % (U-118 MG cells; U-118 MG, 15 uM, repeats) of the same compound?
Answer: 49.75% and 52.18%

Question: What about the Cell viability % (U-118 MG cells; U-118 MG, 20 uM, repeats) of the same compound?
Answer: 38.37% and 42.77%
